# Reference: patent US20160361311A1, “LIGANDS THAT TARGET HEPATITIS C VIRUS E2 PROTEIN” (AMERICAN UNIVERSITY OF CAIRO, priority 2014, published 2016)
# Read-outs that look alike come from different tables or passages of the source.
# Columns and labels:
# recombinant E2 protein = molecular target: T1, recombinant E2 protein (Hepatitis C virus genotype 1b, UniProt Q9WMX2); test: Surface plasmon resonance (Biacore T100) binding to recombinant E2 immobilized on CM5 chip; details: for Binding (RU): 200 μM ligand in PBS, 3 min association; for Dissociation 1 (RU): response remaining 10 sec after rinsing with buffer; for Dissociation 2 (RU): response remaining 50 sec after rinsing with buffer; for rate of ligand dissociation (in words): compared to the other ligands
# T1 construct: encoding amino acids 384-656 of the Con1 envelope protein 2 ectodomain (eE2); made in house; host or cells: HEK293T cells (lentiviral, secreted)
# T1 sequence (Q9WMX2 384-656): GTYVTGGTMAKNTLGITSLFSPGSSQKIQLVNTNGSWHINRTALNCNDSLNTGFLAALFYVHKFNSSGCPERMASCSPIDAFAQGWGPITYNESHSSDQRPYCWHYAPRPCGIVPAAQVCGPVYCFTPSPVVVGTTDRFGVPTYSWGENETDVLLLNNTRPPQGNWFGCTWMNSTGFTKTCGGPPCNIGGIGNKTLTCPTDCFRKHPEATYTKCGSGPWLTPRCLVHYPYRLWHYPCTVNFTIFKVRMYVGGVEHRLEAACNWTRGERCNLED
# Excerpt: A construct containing the sequence encoding amino acids 384-656 of the Con1 envelope protein 2 ectodomain (eE2), a genoptype 1 E2 sequence, was cloned into a lentiviral expression vector with a carboxy-terminal Protein A tag separated by a PreScission Protease cleavage consensus sequence. eE2-ProtA was stably expressed in HEK293T cells using lentiviral infection. The protein was secreted into the media and supernatants were purified using IgG Sepharose (GE Healthcare, Piscataway, N.J.). eE2-ProtA was eluted with 100 mM sodium citrate and 20 mM KCl at pH 3 directly into tubes containing 1M Tris pH 9 for immediate neutralization. PreScission Protease was added to the eluted sample at a ratio of 1:50 (enzyme:eE2), and the digest was then dialyzed into 20 mM HEPES pH 7.5, 250 mM NaCl, 5% glycerol. eE2 was separated from the cleaved tag and the PreScission Protease by ion exchange chromatography.
# The set of 34 of the ligands predicted by AutoDock to bind to E2 were tested experimentally to determine if they bind to recombinant E2 protein immobilized on a chip using surface Plasmon resonance. The SPR analyses were performed using a Biacore T100 workstation (GE Healthcare, NJ, USA) and Prot-A-tagged HCV E2 protein. 1 μM ProtA-HCV E2 was diluted into 10 mM sodium acetate buffer pH 5 and immobilized for 15 min at a flow speed of 5 μl/min onto a CM5 sensor chip using amine coupling (EDC-NHS). Approximately 10,000 response units (RU) of protein were immobilized on the chip. His-CD81-LEL (Bioclone-CA/USA) binding to HCV E2 was tested prior to injecting the ligands to confirm the E2 protein was functional and would bind CD81-LEL. In a typical experiment with CD81, […] of his-CD81 in 114 μl PBS was injected into channel 2 and 106.4 RUs of CD81 bound to the E2 on the chip. This was followed by testing the binding of the 34 virtual screening hits where the ligands were prepared as 200 μM solutions in PBS and they were introduced to the protein using a pre-programmed 3 min association and 1 min dissociation interval. The response was measured at two time points during dissociation, 10 and 50 seconds, to obtain information on the rate of ligand dissociation from E2. Twenty-three of the ligands predicted by AutoDock to bind to E2 were observed by SPR to bind to the recombinant protein (Table 2). The measured responses for the ligands that bound varied from 54 to 276 RUs. Data was also obtained on the rate of ligand dissociation by measuring the amount of ligand remaining bound at two time points, dissociation 1 (10 seconds) and dissociation 2 (50 seconds), during the rinsing of the chip with buffer (FIG. 8). The majority of the ligands dissociated quickly, as one might expect for small molecules that bind to the surface of a protein.
# RD114pp = RD114pp infection of Huh-7 cells (luciferase); format: cell-based, feline endogenous virus RD114; details: read-out: IC50 RD114pp
# Experimental: (§1) Pseudotyped retroviral particles harboring HCV envelope proteins (HCVpp) from different genotypes were produced as described previously. A plasmid encoding the feline endogenous virus RD114 glycoprotein [35] was used for the production of RD114pp. Both HCVpp and RD114pp expressed Firefly luciferase.
# (§2) To identify ligands that inhibit HCV infection, Huh-7 cells were seeded in 96-well plates and treated the day after with six different concentrations of each ligand diluted in DMSO in duplicate using a Zephyr automated liquid handling workstation (Caliper BioSciences, Hopkinton, Mass.). The final concentration of DMSO (1%) was adjusted to be the same for all ligand concentrations. Cells treated with DMSO were used as negative controls. Cells treated with different concentrations of anti-CD81 (JS-81 from BD Pharmingen, San Jose, Calif.) 1 hour before infection, were also used as positive controls. The third day, RD114pp, HCVpp or HCVcc were inoculated and incubated for 30 hours at 37° C. Firefly and Gaussia luciferase assays were performed as indicated by the manufacturer (Promega, San Luis Obispo, Calif.).
# Pseudotyped retroviral particles harboring the envelope protein of an endogenous feline retrovirus (RD114pp) were first used to determine the specificity and the safety of molecules.
# HCVcc = HCVcc infection of Huh-7 cells (Gaussia luciferase); format: cell-based, HCV; details: Hepatitis C virus, Huh-7, 30 h, read-out: IC50 HCVcc
# Experimental: The cell culture-produced HCV particles (HCVcc) used in this study were based on the JFH1 strain [36] and were prepared as described previously. They were engineered to express the A4 epitope, titer-enhancing mutations and Gaussia luciferase.
# as §2
# (§3) The remaining ligands were next tested against pseudotyped retroviral particles harboring genotype-2a HCV envelope proteins (HCVpp 2a), cell culture produced HCV particles (HCVcc) or RD114pp. As a positive control, an anti-CD81 antibody was used in parallel.
# HCVpp 2a = HCVpp 2a infection of Huh-7 cells, 96-well (luciferase); format: cell-based, HCV; details: Hepatitis C virus, Huh-7, 30 h, read-out: IC50 HCVpp
# Experimental: as §1, §2, §3
# [1] = Feline endogenous virus RD114, Huh-7, 30 h
Compound,Binding (RU) (recombinant E2 protein),Dissociation 1 (RU) (recombinant E2 protein),Dissociation 2 (RU) (recombinant E2 protein),IC50 (RD114pp; [1]),IC50 (HCVcc),IC50 (HCVpp 2a),"IC50 (RD114pp; Huh-7 cells, 30 hours)",rate of ligand dissociation (in words) (recombinant E2 protein),binding to recombinant E2 protein by SPR (in words) (recombinant E2 protein)
"CCCc1nc(NC(=O)c2ccccc2)nc(NC(=O)c2ccccc2)n1 [Ligand 359472, N-(4-benzamido-6-propyl-1,3,5-triazin-2-yl)benzamide]",62 RU,2.5 RU,0.8 RU,> 10 µM,> 10 µM,> 10 µM,–,–,–
CC[C@@]1(O)C(=O)OCc2c1cc1n(c2=O)Cc2cc3c(NC(=O)CN)cccc3nc2-1.Cl [Ligand 639174],55.4 RU,2.3 RU,0.6 RU,–,–,–,0.03 µM,–,–
"O=S(=O)(F)c1ccc2nc(-c3cccc(Sc4ccccc4)c3)cc(Cl)c2c1 [Ligand 158413, 4-chloro-2-(3-phenylsulfanylphenyl) quinoline-6-sulfonyl fluoride]",71.2 RU,10.3 RU,8.5 RU,> 10 µM,> 10 µM,> 10 µM,–,slower off rates,–
NC1=N[C@@H](c2ccc(Cl)cc2)N(c2ccc(S(N)(=O)=O)cc2)C(N)=N1 [Ligand 117268],88.5 RU,4.1 RU,1.2 RU,0.1 µM,> 10 µM,> 10 µM,–,–,–
"NC(=O)C(=Cc1ccncc1)c1cccc2ccccc12 (stereo in doubt) [Ligand 144694, (E)-2-naphthalen-1-yl-3-pyridin-4-ylprop-2-enamide]",118.8 RU,6 RU,2.3 RU,> 10 µM,> 10 µM,> 10 µM,–,–,–
"CC1(C)N=C(N)N=C(N)N1c1ccc(OCCCOc2ccccc2)c(Cl)c1 [Ligand 133071, 3-[3-chloro-4-(3-phenoxypropoxy)phenyl]-4,4-dimethyl-1H-1,3,5-triazin-3-ium-2,6-diamine]",276.3 RU,1.8 RU,−2 RU,0.1 µM,–,–,–,–,–
"NC1=Nc2ccccc2C(=O)[N+]1=C(N)N [Ligand 403379, 2-amino-3-(diaminomethylidene) quinazolin-3-ium-4-one]",58 RU,2.8 RU,1.1 RU,> 10 µM,> 10 µM,> 10 µM,–,–,–
O=C(O)C[C@H]1OCC=C2CN3CC[C@]45c6ccccc6N[C@H]4[C@H]1[C@H]2C[C@H]35 [Ligand 121861],88.4 RU,26.1 RU,20.4 RU,> 10 µM,> 10 µM,> 10 µM,–,slower off rates,bound
C1C[C@H]2NCC[C@@H]3NCC[C@H](N1)N32 [Ligand 81462],57.2 RU,9.2 RU,6.5 RU,> 10 µM,> 10 µM,> 10 µM,–,slower off rates,–
"Nc1nc(N)nc(-c2ccccc2-c2nc(N)nc(N)n2)n1 [Ligand 4429, 6-[2-(4,6-diamino-1,3,5-triazin-2-yl)phenyl]-1,3,5-triazine-2,4-diamine]",155.3 RU,28.9 RU,14.2 RU,> 10 µM,> 10 µM,> 10 µM,–,slower off rates,–
"NC1=N/C(=N\c2ccccc2)N[C@H](c2ccccc2)N1 [Ligand 3076, (4R)-6-N,4-diphenyl-1,4-dihydro-1,3,5-triazine-2,6-diamine]",92.2 RU,3.2 RU,1.6 RU,0.25 µM,–,–,–,–,–
"c1ccc(-c2ccc3c(c2)N[C@H]([C@H]2Nc4cc(-c5ccccc5)ccc4O2)O3)cc1 [Ligand 84100, (2S)-5-phenyl-2-[(2S)-5-phenyl-2,3-dihydro-1,3-benzoxazol-2-yl]-2,3-dihydro-1,3-benzoxazole]",71.2 RU,4.2 RU,2.2 RU,> 10 µM,> 10 µM,> 10 µM,–,–,–
"Cc1ccc([N+](=O)[O-])cc1NC(=O)Nc1onc(C)c1C [Ligand 213700, 1-(3,4-dimethyl-1,2-oxazol-5-yl)-3-(2-methyl-5-nitrophenyl)urea]",62 RU,3.1 RU,0.8 RU,> 10 µM,> 10 µM,> 10 µM,–,–,–
"O=C1CCCc2cc3c(cc21)CC1(C3)Cc2cc3c(cc2C1)C(=O)CCC3 [Ligand 670283, 2,2′-spirobi[3,6,7,8-tetrahydro-1H-cyclopenta[g]naphthalene]-5,5′-dione]",54.3 RU,4 RU,1.4 RU,3 µM,–,–,–,–,–
"Cc1cc(-c2ccc(N3C(=O)CC4(CCCC4)C3=O)c(C)c2)ccc1N1C(=O)CC2(CCCC2)C1=O [Ligand 308835, 2-[4-[4-(1,3-dioxo-2-azaspiro[4.4]nonan-2-yl)-3-methylphenyl]-2-methylphenyl]-2-azaspiro[4.4]nonane-1,3-dione]",64.8 RU,7.1 RU,5.2 RU,> 10 µM,> 10 µM,> 10 µM,–,–,–
O=[N+]([O-])c1cc([N+](=O)[O-])c2cccnc2c1O [Ligand 57103],81.6 RU,11.4 RU,2.5 RU,0.3 µM,–,–,–,slower off rates,–
"Cc1ccc([N+](=O)[O-])cc1NC(=O)Nc1ccc(S(N)(=O)=O)cc1 [Ligand 146554, 1-(2-methyl-5-nitrophenyl)-3-(4-sulfamoylphenyl)urea]",63.4 RU,3.1 RU,0.8 RU,> 10 µM,–,–,–,–,–
"COc1ccc(C2=C[C@@H](c3ccc(OC)c(OC)c3)c3c(c4ccccc4oc3=O)O2)cc1OC [Ligand 211490, (4S)-2,4-bis(3,4-dimethoxyphenyl)-4H-pyrano[3,2-c]chromen-5-one]",102.9 RU,6.1 RU,2.1 RU,0.5 µM,–,–,–,–,–
CC12CCC3C(CCC4Cc5[nH]c6ccccc6c5CC43C)C1CCC2O (centres unmarked) [Ligand 60785],70.4 RU,2.8 RU,0.6 RU,3.5 µM,–,–,–,–,–
